{"source": "patent US8192962B2", "about": "“Processes for detecting toxic substances” (Daikin Industries, Ltd., priority 2001, dated 2012)", "tested_on": "Mitochondria-located protein genes", "assay": "DNA chip mRNA expression in yeast, mitochondria-located protein genes (Table 2)", "assay_type": "cell-based, Saccharomyces cerevisiae S288C", "conditions": "cells incubated two hours with the chemical substance", "procedure,_shortened": "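Cells were grown at 25° C. in YPD, treated at logarithmic phase for 2 h with a chemical at a concentration inhibiting growth but not causing death, and compared with untreated cultures. Labeled cDNA was hybridized to a DNA chip carrying all yeast genes, and the expression ratio was taken from scanner fluorescence.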", "data": [{"smiles": "Oc1cc(Cl)c(Cl)cc1Cl", "note": "[(6), 2,4,5-trichlorophenol]", "values": [{"measurement": "The level of expressed mRNA in the presence of chemical substance/The level of expressed mRNA in the absence of chemical substance", "setting": "yeast gene YJR121W", "result": 1.5}, {"measurement": "The level of expressed mRNA in the presence of chemical substance/The level of expressed mRNA in the absence of chemical substance", "setting": "yeast gene YKL003C", "result": 1.0}, {"measurement": "The level of expressed mRNA in the presence of chemical substance/The level of expressed mRNA in the absence of chemical substance", "setting": "yeast gene YKL016C", "result": 0.8}, {"measurement": "The level of expressed mRNA in the presence of chemical substance/The level of expressed mRNA in the absence of chemical substance", "setting": "yeast gene YKL141W", "result": 1.2}, {"measurement": "The level of expressed mRNA in the presence of chemical substance/The level of expressed mRNA in the absence of chemical substance", "setting": "yeast gene YKL142W", "result": 3.4}, {"measurement": "The level of expressed mRNA in the presence of chemical substance/The level of expressed mRNA in the absence of chemical substance", "setting": "yeast gene YKL148C", "result": 0.5}, {"measurement": "The level of expressed mRNA in the presence of chemical substance/The level of expressed mRNA in the absence of chemical substance", "setting": "yeast gene YKL170W", "result": 1.5}, {"measurement": "The level of expressed mRNA in the presence of chemical substance/The level of expressed mRNA in the absence of chemical substance", "setting": "yeast gene YKL194C", "result": 1.4}, {"measurement": "The level of expressed mRNA in the presence of chemical substance/The level of expressed mRNA in the absence of chemical substance", "setting": "yeast gene YKR066C", "result": 0.9}, {"measurement": "The level of expressed mRNA in the presence of chemical substance/The level of expressed mRNA in the absence of chemical substance", "setting": "yeast gene YLL041C", "result": 1.2}, {"measurement": "The level of expressed mRNA in the presence of chemical substance/The level of expressed mRNA in the absence of chemical substance", "setting": "yeast gene YLR038C", "result": 1.2}, {"measurement": "The level of expressed mRNA in the presence of chemical substance/The level of expressed mRNA in the absence of chemical substance", "setting": "yeast gene YLR259C", "result": 0.9}, {"measurement": "The level of expressed mRNA in the presence of chemical substance/The level of expressed mRNA in the absence of chemical substance", "setting": "yeast gene YLR295C", "result": 1.1}, {"measurement": "The level of expressed mRNA in the presence of chemical substance/The level of expressed mRNA in the absence of chemical substance", "setting": "yeast gene YLR304C", "result": 1.9}, {"measurement": "The level of expressed mRNA in the presence of chemical substance/The level of expressed mRNA in the absence of chemical substance", "setting": "yeast gene YLR348C", "result": 1.9}, {"measurement": "The level of expressed mRNA in the presence of chemical substance/The level of expressed mRNA in the absence of chemical substance", "setting": "yeast gene YLR395C", "result": 0.4}, {"measurement": "The level of expressed mRNA in the presence of chemical substance/The level of expressed mRNA in the absence of chemical substance", "setting": "yeast gene YML054C", "result": 1.8}, {"measurement": "The level of expressed mRNA in the presence of chemical substance/The level of expressed mRNA in the absence of chemical substance", "setting": "yeast gene YML120C", "result": 0.6}, {"measurement": "The level of expressed mRNA in the presence of chemical substance/The level of expressed mRNA in the absence of chemical substance", "setting": "yeast gene YML129C", "result": 1.7}, {"measurement": "The level of expressed mRNA in the presence of chemical substance/The level of expressed mRNA in the absence of chemical substance", "setting": "yeast gene YMR023C", "result": 1.1}, {"measurement": "The level of expressed mRNA in the presence of chemical substance/The level of expressed mRNA in the absence of chemical substance", "setting": "yeast gene YMR035W", "result": 1.5}, {"measurement": "The level of expressed mRNA in the presence of chemical substance/The level of expressed mRNA in the absence of chemical substance", "setting": "yeast gene YMR083W", "result": 1.8}, {"measurement": "The level of expressed mRNA in the presence of chemical substance/The level of expressed mRNA in the absence of chemical substance", "setting": "yeast gene YMR089C", "result": 1.2}, {"measurement": "The level of expressed mRNA in the presence of chemical substance/The level of expressed mRNA in the absence of chemical substance", "setting": "yeast gene YMR152W", "result": 7.5}, {"measurement": "The level of expressed mRNA in the presence of chemical substance/The level of expressed mRNA in the absence of chemical substance", "setting": "yeast gene YMR203W", "result": 1.1}, {"measurement": "The level of expressed mRNA in the presence of chemical substance/The level of expressed mRNA in the absence of chemical substance", "setting": "yeast gene YMR267W", "result": 1.4}, {"measurement": "The level of expressed mRNA in the presence of chemical substance/The level of expressed mRNA in the absence of chemical substance", "setting": "yeast gene YNL055C", "result": 2.6}, {"measurement": "The level of expressed mRNA in the presence of chemical substance/The level of expressed mRNA in the absence of chemical substance", "setting": "yeast gene YNL071W", "result": 1.3}, {"measurement": "The level of expressed mRNA in the presence of chemical substance/The level of expressed mRNA in the absence of chemical substance", "setting": "yeast gene YNL073W", "result": 0.5}, {"measurement": "The level of expressed mRNA in the presence of chemical substance/The level of expressed mRNA in the absence of chemical substance", "setting": "yeast gene YNL104C", "result": 0.8}, {"measurement": "The level of expressed mRNA in the presence of chemical substance/The level of expressed mRNA in the absence of chemical substance", "setting": "yeast gene YNL256W", "result": 0.5}, {"measurement": "The level of expressed mRNA in the presence of chemical substance/The level of expressed mRNA in the absence of chemical substance", "setting": "yeast gene YOL096C", "result": 1.3}, {"measurement": "The level of expressed mRNA in the presence of chemical substance/The level of expressed mRNA in the absence of chemical substance", "setting": "yeast gene YOR020C", "result": 2.3}, {"measurement": "The level of expressed mRNA in the presence of chemical substance/The level of expressed mRNA in the absence of chemical substance", "setting": "yeast gene YOR037W", "result": 1.6}, {"measurement": "The level of expressed mRNA in the presence of chemical substance/The level of expressed mRNA in the absence of chemical substance", "setting": "yeast gene YOR100C", "result": 1.2}, {"measurement": "The level of expressed mRNA in the presence of chemical substance/The level of expressed mRNA in the absence of chemical substance", "setting": "yeast gene YOR130C", "result": 1.6}, {"measurement": "The level of expressed mRNA in the presence of chemical substance/The level of expressed mRNA in the absence of chemical substance", "setting": "yeast gene YOR142W", "result": 1.6}, {"measurement": "The level of expressed mRNA in the presence of chemical substance/The level of expressed mRNA in the absence of chemical substance", "setting": "yeast gene YOR150W", "result": 0.9}, {"measurement": "The level of expressed mRNA in the presence of chemical substance/The level of expressed mRNA in the absence of chemical substance", "setting": "yeast gene YOR176W", "result": 0.9}, {"measurement": "The level of expressed mRNA in the presence of chemical substance/The level of expressed mRNA in the absence of chemical substance", "setting": "yeast gene YOR187W", "result": 1.7}, {"measurement": "The level of expressed mRNA in the presence of chemical substance/The level of expressed mRNA in the absence of chemical substance", "setting": "yeast gene YOR316C", "result": 0.9}, {"measurement": "The level of expressed mRNA in the presence of chemical substance/The level of expressed mRNA in the absence of chemical substance", "setting": "yeast gene YPL040C", "result": 1.1}, {"measurement": "The level of expressed mRNA in the presence of chemical substance/The level of expressed mRNA in the absence of chemical substance", "setting": "yeast gene YPL134C", "result": 1.2}, {"measurement": "The level of expressed mRNA in the presence of chemical substance/The level of expressed mRNA in the absence of chemical substance", "setting": "yeast gene YPL135W", "result": 1.3}, {"measurement": "The level of expressed mRNA in the presence of chemical substance/The level of expressed mRNA in the absence of chemical substance", "setting": "yeast gene YPL215W", "result": 0.7}, {"measurement": "The level of expressed mRNA in the presence of chemical substance/The level of expressed mRNA in the absence of chemical substance", "setting": "yeast gene YPL262W", "result": 1.6}, {"measurement": "The level of expressed mRNA in the presence of chemical substance/The level of expressed mRNA in the absence of chemical substance", "setting": "yeast gene YPR024W", "result": 1.0}, {"measurement": "The level of expressed mRNA in the presence of chemical substance/The level of expressed mRNA in the absence of chemical substance", "setting": "yeast gene YPR037C", "result": 0.9}, {"measurement": "The level of expressed mRNA in the presence of chemical substance/The level of expressed mRNA in the absence of chemical substance", "setting": "yeast gene YPR047W", "result": 1.0}, {"measurement": "The level of expressed mRNA in the presence of chemical substance/The level of expressed mRNA in the absence of chemical substance", "setting": "yeast gene YPR134W", "result": 0.6}]}]}
